Experimental data taken from US8299048B2, “Hexahydrocyclopentyl[f]indazole sulfonamides and derivatives thereof as selective glucocorticoid receptor modulators” (Merck Sharp & Dohme Corp., priority 2008, dated 2012).
Where two headings read alike, the source gives them in different places.

Target: T1, human GR (Homo sapiens, UniProt P04150)
T1 sequence (P04150 1-777): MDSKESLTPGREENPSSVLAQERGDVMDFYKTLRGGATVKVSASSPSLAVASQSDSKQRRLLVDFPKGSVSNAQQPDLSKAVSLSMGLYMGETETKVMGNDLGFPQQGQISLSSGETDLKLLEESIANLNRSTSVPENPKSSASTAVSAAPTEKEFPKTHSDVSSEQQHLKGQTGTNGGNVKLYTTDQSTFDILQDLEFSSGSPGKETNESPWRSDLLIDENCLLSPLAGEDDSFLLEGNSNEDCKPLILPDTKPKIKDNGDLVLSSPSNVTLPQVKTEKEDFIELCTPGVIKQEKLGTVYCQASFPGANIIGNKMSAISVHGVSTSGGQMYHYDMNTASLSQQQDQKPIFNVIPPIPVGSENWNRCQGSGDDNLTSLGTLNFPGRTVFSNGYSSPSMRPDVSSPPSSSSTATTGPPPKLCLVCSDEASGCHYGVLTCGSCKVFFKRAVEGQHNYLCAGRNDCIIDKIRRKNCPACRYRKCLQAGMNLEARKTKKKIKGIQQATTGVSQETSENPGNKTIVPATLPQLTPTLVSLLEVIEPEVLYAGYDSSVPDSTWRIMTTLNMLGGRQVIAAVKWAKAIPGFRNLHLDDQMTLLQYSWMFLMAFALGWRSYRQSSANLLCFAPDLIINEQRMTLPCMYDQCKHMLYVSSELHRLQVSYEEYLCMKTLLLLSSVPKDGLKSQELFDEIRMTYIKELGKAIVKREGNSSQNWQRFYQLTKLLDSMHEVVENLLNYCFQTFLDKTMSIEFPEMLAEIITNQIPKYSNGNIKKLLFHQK
Test: Transrepression Assay (GITAR), TNFα-β-lactamase reporter in U937 cells
Type: cell-based
Parameters: U937 cells contain an endogenous glucocorticoid receptor (GR); endogenous in cells; host or cells: U937 cells stably transfected with the TNF-alpha promoter/beta-lactamase reporter
Settings: for GITAR > GRAMM % SEP: GITAR Emax minus GRAMMER Emax; for EC50: U937 cells, inflection point, read-out: Transrepression U937 Cells GITAR IP
Procedure, shortened: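 Repression normalised to 100 nM dexamethasone (100%), measured with CCF2-AM β-lactamase substrate after 70–90 min at room temperature. Stably transfected U937 cells were exposed to compound 30–45 min, then to PMA (5 ng/ml final) plus LPS (100 ng/ml final) overnight (~18 hr), 37° C.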

[1] = U-937, U937 cells, maximum activity, read-out: Transrepression U937 Cells GITAR Emax
[2] = U-937, activity repressed by 100 nM dexamethasone alone set as 100%, read-out: maximal activity in the transrepression (GITAR) assay

SMILES	GITAR > GRAMM % SEP [%]	EC50 [nM]	Emax [1] [%]	Emax [2] [%]
C[C@]12Cc3cnn(-c4ccc(F)cc4)c3C=C1CC[C@@H]2CN(CC#N)S(=O)(=O)c1ccc(F)cc1 [Example 46, N-(cyanomethyl)-4-fluoro-N-{[(4αR,5S)-1-(4-fluorophenyl)-4α-methyl-1,4,4α,5,6,7-hexahydrocyclopenta[f]indazol-5-yl]methyl}benzenesulfonamide]	2.1	187	85.5	> 5
C[C@]12Cc3cnn(-c4ccc(F)cc4)c3C=C1CC[C@@H]2CN(CC#N)S(=O)(=O)c1cc(F)c(F)cc1F [Example 47, N-(cyanomethyl)-2,4,5-trifluoro-N-{[(4αR,5S)-1-(4-fluorophenyl)-4α-methyl-1,4,4α,5,6,7-hexahydrocyclopenta[f]indazol-5-yl]methyl}benzenesulfonamide]	15.7	895	74	> 5
C[C@]12Cc3cnn(-c4ccc(F)cc4)c3C=C1CC[C@@H]2CN(CC#N)S(=O)(=O)Cc1ccccc1 [Example 48, N-(cyanomethyl)-N-{[(4αR,5S)-1-(4-fluorophenyl)-4α-methyl-1,4,4α,5,6,7-hexahydrocyclopenta[f]indazol-5-yl]methyl}-1-phenylmethanesulfonamide]	15.7	175	24.5	> 5
Cc1ccccc1S(=O)(=O)N(CC#N)C[C@H]1CCC2=Cc3c(cnn3-c3ccc(F)cc3)C[C@@]21C [Example 49, N-(cyanomethyl)-N-{[(4αR,5S)-1-(4-fluorophenyl)-4α-methyl-1,4,4α,5,6,7-hexahydrocyclopenta[f]indazol-5-yl]methyl}-2-methylbenzenesulfonamide]	8.9	922	23	> 5
C[C@]12Cc3cnn(-c4ccc(F)cc4)c3C=C1CC[C@@H]2CN(CC#N)S(=O)(=O)c1ccccc1Cl [Example 50, 2-chloro-N-(cyanomethyl)-N-{[(4αR,5S)-1-(4-fluorophenyl)-4α-methyl-1,4,4α,5,6,7-hexahydrocyclopenta[f]indazol-5-yl]methyl}benzenesulfonamide]	46.2	959	61.3	> 5
C[C@]12Cc3cnn(-c4ccc(F)cc4)c3C=C1CC[C@@H]2CN(CC#N)S(=O)(=O)c1ccc(F)cc1F [Example 51, N-(cyanomethyl)-2,4-difluoro-N-{[(4αR,5S)-1-(4-fluorophenyl)-4α-methyl-1,4,4α,5,6,7-hexahydrocyclopenta[f]indazol-5-yl]methyl}benzenesulfonamide]	3.5	186	86.8	> 5
Cc1nn(C)c(Cl)c1S(=O)(=O)N(CC#N)C[C@H]1CCC2=Cc3c(cnn3-c3ccc(F)cc3)C[C@@]21C [Example 52, 5-chloro-N-(cyanomethyl)-N-{[(4αR,5S)-1-(4-fluorophenyl)-4α-methyl-1,4,4α,5,6,7-hexahydrocyclopenta[f]indazol-5-yl]methyl}-1,3-dimethyl-1H-pyrazole-4-sulfonamide]	22.5	869	54.4	> 5
C[C@]12Cc3cnn(-c4ccc(F)cc4)c3C=C1CC[C@@H]2CN(CC#N)S(=O)(=O)c1ccccc1-c1ccccc1 [Example 53, N-(cyanomethyl)-N-{[(4αR,5S)-1-(4-fluorophenyl)-4α-methyl-1,4,4α,5,6,7-hexahydrocyclopenta[f]indazol-5-yl]methyl}biphenyl-2-sulfonamide]	36.0	832	54	> 5

Second part, the compound after the results:

GITAR > GRAMM % SEP [%]	EC50 [nM]	Emax [1] [%]	Emax [2] [%]	SMILES
23.1	1100	31.3	> 5	C[C@]12Cc3cnn(-c4ccc(F)cc4)c3C=C1CC[C@@H]2CN(CC#N)S(=O)(=O)c1ccccc1C(F)(F)F [Example 54, N-(cyanomethyl)-N-{[(4αR,5S)-1-(4-fluorophenyl)-4α-methyl-1,4,4α,5,6,7-hexahydrocyclopenta[f]indazol-5-yl]methyl}-2-(trifluoromethyl)benzenesulfonamide]
35.7	337	83.4	> 5	C[C@]12Cc3cnn(-c4ccc(F)cc4)c3C=C1CC[C@@H]2CN(CC#N)S(=O)(=O)c1ccccc1C#N [Example 55]
36.1	643	86.9	> 5	Cc1oncc1S(=O)(=O)N(CCO)C[C@H]1CCC2=Cc3c(cnn3-c3ccc(F)cc3)C[C@@]21C [Example 56, N-{[(4αR,5S)-1-(4-fluorophenyl)-4α-methyl-1,4,4α,5,6,7-hexahydrocyclopenta[f]indazol-5-yl]methyl}-N-(2-hydroxyethyl)-5-methylisoxazole-4-sulfonamide]
25.7	737	28.8	> 5	C[C@]12Cc3cnn(-c4ccc(F)cc4)c3C=C1CC[C@@H]2CN(CCO)S(=O)(=O)c1cc(Cl)c(Cl)s1 [Example 58, 4,5-dichloro-N-{[(4αR,5S)-1-(4-fluorophenyl)-4α-methyl-1,4,4α,5,6,7-hexahydrocyclopenta[f]indazol-5-yl]methyl}-N-(2-hydroxyethyl)thiophene-2-sulfonamide]
39.6	538	80.9	> 5	C[C@]12Cc3cnn(-c4ccc(F)cc4)c3C=C1CC[C@@H]2CN(CCO)S(=O)(=O)c1ccc(F)c(F)c1 [Example 59]
29.0	813	52	> 5	C[C@]12Cc3cnn(-c4ccc(F)cc4)c3C=C1CC[C@@H]2CN(CCO)S(=O)(=O)c1ccc(C#N)cc1Cl [Example 60, 2-chloro-4-cyano-N-{[(4αR,5S)-1-(4-fluorophenyl)-4α-methyl-1,4,4α,5,6,7-hexahydrocyclopenta[f]indazol-5-yl]methyl}-N-(2-hydroxyethyl)benezenesulfonamide]
25.5	1550	31.3	> 5	C[C@]12Cc3cnn(-c4ccc(F)cc4)c3C=C1CC[C@@H]2CN(CCO)S(=O)(=O)c1cccc(Cl)c1Cl [Example 61, 2,3-dichloro-N-{[(4αR,5S)-1-(4-fluorophenyl)-4α-methyl-1,4,4α,5,6,7-hexahydrocyclopenta[f]indazol-5-yl]methyl}-N-(2-hydroxyethyl)benezenesulfonamide]
56.1	3030	68.5	> 5	C[C@]12Cc3cnn(-c4ccc(F)cc4)c3C=C1CC[C@@H]2CNS(=O)(=O)Cc1cccnc1 [Example 169, N-{[(4αR,5S)-1-(4-fluorophenyl)-4α-methyl-1,4,4α,5,6,7-hexahydrocyclopenta[f]indazol-5-yl]methyl}-1-pyridin-3-ylmethanesulfonamide]
11.8	759	87.7	> 5	Cc1noc(C)c1S(=O)(=O)N(CC1CCCO1)C[C@H]1CCC2=Cc3c(cnn3-c3ccc(F)cc3)C[C@@]21C (stereo partly drawn) [Example 170, N-{[(4αR,5S)-1-(4-fluorophenyl)-4α-methyl-1,4,4α,5,6,7-hexahydrocyclopenta[f]indazol-5-yl]methyl}-3,5-dimethyl-N-(tetrahydrofuran-2-ylmethyl)isoxazole-4-sulfonamide]
16.7	410	88	> 5	CCS(=O)(=O)N(CCOC)C[C@H]1CCC2=Cc3c(cnn3-c3ccc(F)cc3)C[C@@]21C [Example 171, N-{[(4αR,5S)-1-(4-fluorophenyl)-4α-methyl-1,4,4α,5,6,7-hexahydrocyclopenta[f]indazol-5-yl]methyl}-N-(2-methoxyethyl)ethanesulfonamide]
31.8	718	42.4	> 5	COCCN(C[C@H]1CCC2=Cc3c(cnn3-c3ccc(F)cc3)C[C@@]21C)S(=O)(=O)c1cn(C)nc1C(F)(F)F [Example 172, N-{[(4αR,5S)-1-(4-fluorophenyl)-4α-methyl-1,4,4α,5,6,7-hexahydrocyclopenta[f]indazol-5-yl]methyl}-N-(2-methoxyethyl)-1-methyl-3-(trifluoromethyl)-1H-pyrazole-4-sulfonamide]
